The values that follow come from PMC9959589, “Use of a Longer Aglycon Moiety Bearing Sialyl α(2→3) Lactoside on the Glycopolymer for Lectin Evaluation” (Polymers, 2023).

Molecules are shown by their SMILES.

The assay deals with T1, Wheat germ agglutinin (WGA).
T1 construct: gene WGA1; commercial native lectin from wheat germ (J-Oil Mills)
In words: intrinsic tryptophan fluorescence titration, Hill plot. It is filed as binding, Triticum aestivum. As to conditions: 0.65 μM WGA, 50 mM Tris-HCl, 1.25 M NaCl, 25 mM CaCl2, pH 7.5, 4 °C; excitation 295 nm, emission 348 nm (buffer as given for 10b, same procedure); read-out: K a / (×10^5 M^-1) (converted). The text has this:
intrinsic tryptophan fluorescence titration, Hill plot on Wheat germ agglutinin (WGA)

Consider `C=CC(=O)NCCOCCOCCOCCOCCOCCOCCOCCOCCO[C@@H]1O[C@H](CO)[C@@H](O[C@@H]2O[C@H](CO)[C@H](O)[C@H](O[C@]3(C(=O)O)C[C@H](O)[C@@H](NC(C)=O)[C@H]([C@H](O)[C@H](O)CO)O3)[C@H]2O)[C@H](O)[C@H]1O` [compound 9, 28-Oxo-3,6,9,12,15,18,21,24-octaoxa-27-azatriacont-29-en-1-yl (5-Acetamido-3,5-dideoxy-D̿ -glycero-α-D̿ -galacto-2-nonulopyranosyl)-(2→3)-O-(β-D̿ -galactopyranosyl)-(1→4)-β-D̿ -glucopyranoside], for which the Kd was 31.2 µM.
